Reference: US20260062432A1 (REXPHARMTECH CO., LTD, priority 2022, published 2026)
≈ marks a conversion by molar mass, not a printed value. Structures can show the parent of a compound that is named as a salt.

Assays:
[1] = versus thiamine hydrochloride or thiamine nitrate; cited from earlier work
[2] = Solubility test (saturated solution, HPLC); type: physicochemical
Protocol: After diluting a reference solution with 50% acetonitrile, a calibration curve (range: […]) was prepared by USP compendial HPLC analysis, and the concentration of the saturated solution was obtained from a first-order function of the prepared calibration curve.

[3] = test system: mouse model of Alzheimer's disease; settings: cited from earlier work
[4] = test system: patients with mild cognitive impairment or Alzheimer's disease; settings: cited from earlier work
[5] = Stability test under harsh conditions (60° C.±2° C.), HPLC analysis; type: physicochemical; settings: for purity (HPLC), Day 3 / purity (HPLC), Day 7 / purity (HPLC), Day 14 / purity (HPLC), Day 21 / purity (HPLC), Initial: harsh conditions 60° C.±2° C.; for purity change: stability test for 21 days under harsh conditions
Protocol: A stability test of a pharmaceutical means to confirm the stability of constant quality over time under certain conditions to set the storage method and shelf life of the pharmaceutical. Therefore, an expiration date of a product is set by setting appropriate specifications and evaluating conformance to the specifications by evaluating significant changes based on a prescribed analytical method.
Specifically, a stability test was conducted under harsh conditions (60° C.±2° C.) according to the ICH guidelines, and an analysis was performed by high-performance liquid chromatography (HPLC) analysis.

[6] = test system: p-ERK, p-AKT, and NR2B in primary cultured hippocampal neurons; experiment: Immunoblot test: activation of neuroplastic factors in hippocampal cells; type: cell-based, SD rats (Sprague-Dawley rats); settings: 1 or 3 μg/ml, 10 minutes, FIG. 5
Protocol: All cells used in the experiment were primary cultured hippocampal neurons. Hippocampal neurons were isolated from embryos of SD rats (Sprague-Dawley rats, Samtaco Korea) on gestation Day 18 and Day 19. A hippocampal nerve tissue of fetal rats was physically separated by using a dissecting microscope and then placed in HBSS (Hank's Balanced Salt Solution) supplemented with 0.25% trypsin and treated at 37° C. for 10 minutes. After washing the hippocampal nerve tissue with HBSS, single cells were isolated by carefully pipetting with a pipette. The isolated cells were cultured by filling a 60 mm cell culture dish, coated with Poly-L-lysine (0.5 mg/ml) in advance, with Neurobasal/B27 medium (0.5 mM L-glutamine, 25 μM glutamate, 25 μM 2-mercaptoethanol, 100 U/mL penicillin, 100 μg/ml streptomycin) at 5% CO2 and 37° C. The medium was exchanged on cell culture Day 4 and Day 11, and the cells were used in the experiment on culture Day 14. To confirm p-ERK, p-AKT, and NR2B in cells, the medium of primary cultured hippocampal neurons cultured for 14 days was changed to a B-27-free medium at least 1 hour before drug treatment. […] The disrupted cell solution was quantified according to a protein quantification method, and then for protein analysis (immunoblotting), the protein was subjected to electrophoresis on 8% and 10% SDS-polyacrylamide gel. The membrane was subjected to a reaction at room temperature for 1 hour by adding 5% skim milk. A primary antibody was treated with tris buffered saline at a ratio of 1:1000, subjected to a reaction at 4° C. for 24 hours, and then washed three times with TBST (25 mM Tris-Hcl, 140 mM NaCl, 0.1% Tween 20, pH 7.5). After that, a secondary antibody was subjected to a reaction with Anti-Rabbit or Anti-Mouse antibody (HRP-linked) in 3% skim milk at a ratio of 1:5000 for 1 hour. The coupled antibody complex was confirmed by using West Femto Maximum Sensitivity Substrate (Thermo), and the results are shown in FIG. 5.

Row | Solubility ([2]; Purified water) [µg/mL] | Solubility ([2]; pH 1.2) [µg/mL] | Solubility ([2]; pH 4.0) [µg/mL] | Solubility ([2]; pH 6.8) [µg/mL] | solubility at 1 h ([2]; purified water and solutions at pH 1.2, pH 4.0 and pH 6.8, aqueous buffer, thermodynamic from solid, purified water and solutions at pH 1.2, pH 4.0 and pH 6.8, read-out: solubility (range over all media)) [µg/mL] | purity (HPLC), Day 3 [5] | purity (HPLC), Day 7 [5] | purity (HPLC), Day 14 [5] | purity (HPLC), Day 21 [5] | purity (HPLC), Initial [5] | purity change [5] [%] | solubility (in words) ([2]; purified water and all solutions at pH 1.2, pH 4.0, and pH 6.8) | SMILES | bioavailability higher than thiamine hydrochloride or thiamine nitrate [1] | level of phosphorylated tau [3] | number of amyloid plaques [3] | spatial memory [3] | rate of functional decline [4] | level of NR2B [6] | level of phosphorylated Akt [6] | level of phosphorylated ERK [6]
1 | 3000 (≈ 6.43 mM) | 5600 (≈ 12 mM) | 3100 (≈ 6.65 mM) | 6600 (≈ 14.1 mM) | 3000 to 6600 (≈ 6.43 to 14.1 mM) | 99.1 | 98.6 | 97.5 | 97.0 | 99.5 | 2.5 | – | C/C(=C(\CCOP(=O)(O)O)SC(=O)c1ccccc1)N(C=O)Cc1cnc(C)nc1N [Comparative Example, benfotiamine] | about 3.6 times | reduces | reduces | improves spatial memory in a dose-dependent manner | effective and safe in slowing down the rate of functional decline | – | – | –
2 | 652100 | 898400 | 690200 | 820000 | – | 99.2 | 99.1 | 99.0 | 98.2 | 99.3 | 1.1 | very high solubility | C/C(=C(\CCOP(=O)(O)O)SC(=O)c1ccccc1)N(C=O)Cc1cnc(C)nc1N [Example 1, benfotiamine choline salt] | – | – | – | – | – | effectively increased | effectively increased | effectively increased
